According to patent US20250214968A1, “Novel Salt of GLP-1 Receptor Agonist Compound, Preparation Method Thereof and Pharmaceutical Composition Comprising Thereof” (Ildong Pharmaceutical Co., Ltd., priority 2022, published 2025):
≈ marks a conversion by molar mass, not a printed value. Structures can show the parent of a compound that is named as a salt.

Key:
Format in all cases: physicochemical
[1] = Thermogravimetric (TGA) analysis; details: TGA 20° C. to 350° C., 10° C./min, nitrogen
Protocol: Thermogravimetric (TGA) analysis was performed on the tromethamine salt prepared in Example 3, the free base prepared in Comparative Example 1, the L-arginine salt prepared in Comparative Example 2, the meglumine salt prepared in Comparative Example 3, and the potassium salt prepared in Comparative Example 4. Thermogravimetric analysis was performed from 20° C. to 350° C. at a heating rate of 10° C./min under nitrogen conditions using TGA Q50 manufactured by TA Instruments, Inc. The weight loss at about 170° C. or less for each salt was measured, and results thereof are shown in FIG. 2 (tromethamine salt), FIG. 3 (free base), FIG. 6 (L-arginine salt), FIG. 9 (meglumine salt), and 12 (potassium salt), and summarized in Table 4 below.

[2] = Hygroscopicity test by DVS, 25° C. and 90% RH; details: moisture sorption
Protocol: Samples in amounts of about 5 to 25 mg were tested for moisture sorption/desorption profiles at 25° C. under a 0% to 90% relative humidity (RH) cycle according to the pa-rameters in Table 2 below using DVS Intrinsic 1 manufactured by Surface Measurement System Ltd.
Hygroscopicity was measured for the tromethamine salt prepared in Example 3, the L-arginine salt prepared in Comparative Example 2, the meglumine salt prepared in Comparative Example 3, and the potassium salt prepared in Comparative Example 4. Results thereof are shown in FIGS. 14 to 17, respectively, and the results of the weight percent gain according to moisture sorption are shown in Table 6 below.

[3] = Hygroscopicity test, European Pharmacopoeia conditions, 25° C. and 80% RH; details: stored 24 hours at 25° C., 80% RH (EP conditions)
Protocol: Under the hygroscopicity test conditions of the European Pharmacopoeia (EP), the tromethamine salt prepared in Example 3 and the free base prepared in Comparative Example 1 were stored for 24 hours at a temperature of 25° C. and a relative humidity of 80%, and then the mass change of the sample due to moisture sorption was measured.

[4] = Drug stability evaluation under stress condition (80° C., open)
Protocol: The free base and the tromethamine salt of (S)-2-((4-(6-((5-cyanopyridin-2-yl)methoxy)pyridin-2-yl)piperazin-1-yl)methyl)-1-(oxetan-2-ylmethyl)-1H-benzo[d]imidazol-6-carboxylic acid were weighed into each vial and stored under stress conditions to investigate stability.
The stress conditions are as follows: • high temperature open room condition: 80° C.;
Samples were analyzed by XRPD and HPLC at the onset (Day 0) and week 1 of storage.

[5] = Solubility in water and bio-relevant media; details: for Final pH: after 24 hours stirring; for solubility at 24 h: thermodynamic from solid, room temperature, 2 mg/mL loading
Protocol: Solubility in water and bio-relevant media, i.e., stimulated gastric fluid (SGF), fasted state simulated intestinal fluid (FaSSIF), and fed state simulated intestinal fluid (FeSSIF) of the free base and the tromethamine salt of (S)-2-((4-(6-((5-cyanopyridin-2-yl)methoxy)pyridin-2-yl)piperazin-1-yl)methyl)-1-(oxetan-2-ylmethyl)-1H-benzo[d]imidazol-6-carboxylic acid was confirmed.
Buffers for the bio-relevant media were prepared as follows.
Water: Laboratory Milli-Q purified water.
SGF (Stimulated Gastric Fluid): 2.0 g of sodium chloride and 7 mL of hydrochloric acid dissolved in 1000 mL of water was used.
FaSSIF (Fasted State Simulated Intestinal Fluid): A commercial product purchased from Bio-Relevant Company and manufactured according to instructions was used.
FeSSIF (Fed State Simulated Intestinal Fluid): A commercial product purchased from Bio-Relevant Company and prepared according to instructions was used.
For the experiment, about 2 mg of compound (2 mg as free base form) was weighed into each glass vial and then 1 mL of medium was added (final concentration of 2 mg/mL). Then, the sample was continuously stirred for 24 hours in a magnetic stirrer at a speed of […] at room temperature. Then, the pH was measured and the mixture was filtered using MultiScreen®HTS-HV 96-well plate (Merck; 0.45 μm hydrophilic low protein binding Durapore® membrane). Solubility was analyzed using HPLC.

[6] = XRPD analysis of crystal form under various relative humidity conditions; details: 20° C.
Protocol: The X-ray powder diffraction (XRPD) pattern was measured using DYY884-AERIS-300 manufactured by PANalytical company, and analyzed with a step size of about 0.02° over the range of about 2° to 45° in the […].
The XRPD analysis of the crystalline form 1 of the tromethamine salt of (S)-2-((4-(6-((5-cyanopyridin-2-yl)methoxy)pyridin-2-yl)piperazin-1-yl)methyl)-1-(oxetan-2-ylmethyl)-1H-benzo[d]imidazol-6-carboxylic acid was performed under the conditions of varying relative humidity from 15% RH to 90% RH at 20° C., and the changes in the crystalline form according to the relative humidity were confirmed.

[7] = 80° C. (Week 1), high temperature open
[8] = simulated gastric fluid, SGF (pH 2.0)

Structure (SMILES) | Weight loss (%) at about 170° C. or less [1] | Weight percent gain (%) [2] | Weight percent gain (%) [3] | Chemical stability by HPLC purity % [4, 7] | Chemical stability by HPLC purity % ([4]; Onset (Day 0)) | Final pH ([5]; FaSSIF (pH 6.5)) | Final pH ([5]; FeSSIF (pH 5.8)) | Final pH ([5]; SGF (pH 2.0)) | Final pH ([5]; Water) | solubility at 24 h [5, 8] | solubility at 24 h ([5]; FaSSIF (pH 6.5)) | solubility at 24 h ([5]; FeSSIF (pH 5.8)) | solubility at 24 h ([5]; Water) | further results
CNC[C@H](O)[C@@H](O)[C@H](O)[C@H](O)CO.N#Cc1ccc(COc2cccc(N3CCN(Cc4nc5ccc(C(=O)O)cc5n4C[C@@H]4CCO4)CC3)n2)nc1 [Comparative Example 3, meglumine salt of (S)-2-((4-(6-((5-cyanopyridin-2-yl)methoxy)pyridin-2-yl)piperazin-1-yl)methyl)-1-(oxetan-2-ylmethyl)-1H-benzo[d]imidazol-6-carboxylic acid] | 2.8132% | 17.77% |  |  |  |  |  |  |  |  |  |  |  | 
N#Cc1ccc(COc2cccc(N3CCN(Cc4nc5ccc(C(=O)O)cc5n4C[C@@H]4CCO4)CC3)n2)nc1.N=C(N)NCCC[C@H](N)C(=O)O [Comparative Example 2, L-arginine salt of (S)-2-((4-(6-((5-cyanopyridin-2-yl)methoxy)pyridin-2-yl)piperazin-1-yl)methyl)-1-(oxetan-2-ylmethyl)-1H-benzo[d]imidazol-6-carboxylic acid] | 7.368% | 6.84% |  |  |  |  |  |  |  |  |  |  |  | 
N#Cc1ccc(COc2cccc(N3CCN(Cc4nc5ccc(C(=O)O)cc5n4C[C@@H]4CCO4)CC3)n2)nc1 [Comparative Example 1, (S)-2-((4-(6-((5-cyanopyridin-2-yl)methoxy)pyridin-2-yl)piperazin-1-yl)methyl)-1-(oxetan-2-ylmethyl)-1H-benzo[d]imidazol-6-carboxylic acid] | 3.323% |  | 2.7% | 96.70% | 97.84% | 6.49 | 5.70 | 1.74 | 6.64 | 850 µg/mL (≈ 1580 µM) | 160 µg/mL (≈ 297 µM) | 63 µg/mL (≈ 117 µM) | 106 µg/mL (≈ 196 µM) | 
N#Cc1ccc(COc2cccc(N3CCN(Cc4nc5ccc(C(=O)[O-])cc5n4C[C@@H]4CCO4)CC3)n2)nc1.[K+] [Comparative Example 4, potassium salt of (S)-2-((4-(6-((5-cyanopyridin-2-yl)methoxy)pyridin-2-yl)piperazin-1-yl)methyl)-1-(oxetan-2-ylmethyl)-1H-benzo[d]imidazol-6-carboxylic acid] | 4.284% | 5.97% |  |  |  |  |  |  |  |  |  |  |  | 
N#Cc1ccc(COc2cccc(N3CCN(Cc4nc5ccc(C(=O)O)cc5n4C[C@@H]4CCO4)CC3)n2)nc1 [Example 3, tromethamine salt of (S)-2-((4-(6-((5-cyanopyridin-2-yl)methoxy)pyridin-2-yl)piperazin-1-yl)methyl)-1-(oxetan-2-ylmethyl)-1H-benzo[d]imidazol-6-carboxylic acid] | 0.1207% | 1.44% | 0.22% | 97.32% | 97.99% | 6.50 | 5.85 | 1.90 | 7.21 | 710 µg/mL | > 2000 µg/mL | 336 µg/mL | > 2000 µg/mL | change in the XRPD pattern ([4]; harsh conditions, 80° C., week 1): did not show any change in the XRPD pattern; purity change rate ([4]; harsh conditions, 80° C., week 1 vs day 0): less than 1%; Weight percent gain (%) ([2]; listed as tromethamine salt): about 1.44%; Crystalline Form ([6]; 15% RH, during desorption): Form 1; Crystalline Form ([6]; 15% RH, increasing humidity): 1; Crystalline Form ([6]; 20% RH, increasing humidity): 1; Crystalline Form ([6]; 25% RH, increasing humidity): 1; Crystalline Form ([6]; 30% RH, during desorption): Form 1; Crystalline Form ([6]; 30% RH, increasing humidity): 1; Crystalline Form ([6]; 35% RH, increasing humidity): 1; Crystalline Form ([6]; 40% RH, during desorption): Form 1; Crystalline Form ([6]; 40% RH, increasing humidity): 1; Crystalline Form ([6]; 45% RH, increasing humidity): 1; Crystalline Form ([6]; 50% RH, during desorption): intermediate; Crystalline Form ([6]; 50% RH, increasing humidity): 1; Crystalline Form ([6]; 55% RH, increasing humidity): 1A; Crystalline Form ([6]; 60% RH, increasing humidity): 1A
